Source: article PMC7893776, “Selecting an anti-malarial clinical candidate from two potent dihydroisoquinolones” (Malaria Journal, 2021)
One block for each compound: values may come before it.

Columns and labels:
Assay type in all cases: in vitro ADME
[1] = Microsomal stability, dog; conditions: dog microsomes; for CLint in vitro: independent replicate to Table 4; for CLint in vivo: scaled up using PBSF
Procedure: (§1) The metabolic stability assay was performed by incubating compounds individually (0.8, 4, or 20 µM) with mouse, rat, dog and human liver microsomes (Fisher, 0.5 mg/mL protein concentration) at 37 °C. The metabolic reaction was initiated by the addition of a NADPH-regenerating system and quenched at various time points by the addition of acetonitrile according to a published method.
(§2) The remaining concentration of each compound was measured as a ratio of peak area to the internal standard. The log peak area ratio was plotted vs. time (h), and the slope was determined to calculate the elimination rate constant [k = (− 2.303) * slope]. If deviation from first order kinetics was evident, only the initial linear portion of the plot was used to determine the rate constate, k. The half-life (h) was calculated as t1/2 = 0.693/k. Intrinsic clearance in vitro was calculated as CLintin vitro = (1000)*(0.693/t1/2*60)/0.5, where microsomal concentration in the reaction solution was 0.5 mg/mL; 1000 and 60 are scaling factors for volume (µL) and time (min), respectively. The intrinsic in vitro clearance was scaled to the intrinsic in vivo clearance using physiology based scaling factor (PBSF): CLint in vivo= CLint in vitro *PBSF: (microsome protein/gram liver) * (gram liver/kg b.w.), with PBSF: 47 (mouse), 47(rat), 58 (dog), 32 (human); and liver weight proportions: 54.9 (mouse), 36.6 (rat), 32.9 (dog) 25.7 (human).

[2] = Microsomal stability, rat; conditions: rat microsomes; for CLint in vitro: independent replicate to Table 4; for CLint in vivo: scaled up using PBSF
Procedure: as §1, §2

[3] = Microsomal stability, human; conditions: human microsomes; for CLint in vitro: independent replicate to Table 4; for CLint in vivo: scaled up using PBSF
Procedure: as §1, §2

[4] = Microsomal stability, mouse; conditions: mouse microsomes; for CLint in vitro: independent replicate to Table 4; for CLint in vivo: scaled up using PBSF
Procedure: as §1, §2

- CLint ([1]; 0.8 µM): 10.9 ± 1.5 µl/min/mg protein
- t1/2 ([1]; 0.8 µM): 2.2 ± 0.4 h
- CLint in vitro ([1]; 0.8 µM): 9.8 ± 0.4 µl/min/mg protein
- CLint in vivo ([1]; 0.8 µM): 14.1 ± 0.5 mL/min/kg
- CLint in vitro ([1]; 4 µM): 9.5 ± 0.3 µl/min/mg protein
- CLint in vivo ([1]; 4 µM): 13.7 ± 0.5 mL/min/kg
- CLint in vitro ([1]; 20 µM): 6.0 ± 0.4 µl/min/mg protein
- CLint in vivo ([1]; 20 µM): 8.6 ± 0.6 mL/min/kg
- CLint ([2]; 0.8 µM): < 7 µl/min/mg protein
- t1/2 ([2]; 0.8 µM): > 4 h
- CLint in vitro ([2]; 0.8 µM): <7 µl/min/mg protein
- CLint in vivo ([2]; 0.8 µM): <11.7 mL/min/kg
- CLint in vitro ([2]; 4 µM): <7 µl/min/mg protein
- CLint in vivo ([2]; 4 µM): <11.7 mL/min/kg
- CLint in vitro ([2]; 20 µM): <7 µl/min/mg protein
- CLint in vivo ([2]; 20 µM): <11.7 mL/min/kg
- CLint ([3]; 0.8 µM): 61.7 ± 13.2 µl/min/mg protein
- t1/2 ([3]; 0.8 µM): 0.4 ± 0.1 h
- CLint in vitro ([3]; 0.8 µM): 52.4 ± 1.1 µl/min/mg protein
- CLint in vivo ([3]; 0.8 µM): 47.2 ± 1.0 mL/min/kg
- CLint in vitro ([3]; 4 µM): 40.4 ± 0.9 µl/min/mg protein
- CLint in vivo ([3]; 4 µM): 36.4 ± 0.8 mL/min/kg
- CLint in vitro ([3]; 20 µM): 25.3 ± 0.4 µl/min/mg protein
- CLint in vivo ([3]; 20 µM): 22.7 ± 0.3 mL/min/kg
- CLint ([4]; 0.8 µM): 32.1 ± 2.1 µl/min/mg protein
- t1/2 ([4]; 0.8 µM): 0.8 ± 0.1 h
- CLint in vitro ([4]; 0.8 µM): 30.6 ± 1.4 µl/min/mg protein
- CLint in vivo ([4]; 0.8 µM): 71.7 ± 3.4 mL/min/kg
- CLint in vitro ([4]; 4 µM): 26.9 ± 0.6 µl/min/mg protein
- CLint in vivo ([4]; 4 µM): 63.0 ± 2.1 mL/min/kg
- CLint in vitro ([4]; 20 µM): 10.5 ± 0.4 µl/min/mg protein
Structure (SMILES): N#Cc1cc(NC(=O)[C@@H]2c3ccccc3C(=O)N(CC(F)(F)F)[C@H]2c2cccnc2)ccc1F [(-)-SJ733]

- CLint ([1]; 0.8 µM): < 7 µl/min/mg protein
- t1/2 ([1]; 0.8 µM): > 4 h
- CLint ([2]; 0.8 µM): < 7 µl/min/mg protein
- t1/2 ([2]; 0.8 µM): > 4 h
- CLint ([3]; 0.8 µM): < 7 µl/min/mg protein
- t1/2 ([3]; 0.8 µM): > 4 h
- CLint ([4]; 0.8 µM): < 7 µl/min/mg protein
- t1/2 ([4]; 0.8 µM): > 4 h
Structure (SMILES): N#Cc1cc(NC(=O)[C@@H]2c3ccccc3C(=O)N(CC(F)(F)F)[C@H]2c2cn[nH]c2)ccc1F [(−)-SJ311]
